Results from US20120083471A1, “Novel Compounds, Pharmaceutical Compositions Containing Same, Methods of Use for Same, and Methods for Preparing Same” (priority 2008, published 2012).
“Also recorded” adds a separate entry of the source. Where two headings read alike, the source gives them in different places.

Columns and labels:
3T3-L1 adipocytes = assay: Acylglyceride synthesis in 3T3-L1 adipocytes ([14C]palmitate labelling, TLC); format: cell-based, mouse; settings: for IC50: Mus musculus, 3T3-L1 adipocytes 7 days post-differentiation, 18 h treatment, linear regression, n=3
Protocol: 3T3-L1 Adipocytes 3T3-L1 cells were differentiated into adipocytes as described 34. Seven days post-differentiation, cells were treated with FSG67 at indicated concentrations for 18 h, then labeled with [14C]palmitate for 2 h. Following Folch extraction, lipids were subjected to polar and non-polar thin-layer chromatography 35. Triglyceride and phosphatidylcholine fractions were quantified with phosphorimaging (Storm 840, Molecular Dynamics, Piscataway, N.J.).
Mouse 3T3-L1 adipocytes were used to test the effect FSG67 on acylglyceride synthesis in vitro. […] As phosphatidylcholine was the predominant phospholipid synthesized in the 3T3-L1 adipocytes, it is representative of overall cellular phospholipid synthesis. […] Note the decrease in lipid droplets in the FSG67 treated cells compared to vehicle treated controls. Thus, FSG67 inhibits cellular acylglyceride synthesis with an IC50 similar to its inhibition of GPAT activity in mitochondrial preparations.

DIO mice [1] = assay: 10 d FSG67 treatment of DIO mice with Q-NMR assessment of adiposity; format: in vivo, mouse
Protocol: Q-NMR assessment of adiposity. Following 10 days of FSG67 treatment or vehicle by ip administration, the DIO mice were euthanized and carcasses were stored at −80° C. Carcasses were thawed for Q-NMR analysis. Measurement of fat, lean, and water mass was performed using an EchoMRI-100™ (Echo Medical Systems, Houston, Tex.) in the Molecular and Comparative Pathobiology Phenotyping Core.
Since FSG67 increased fatty acid oxidation and reduced food intake in DIO mice, we next used Q-NMR analysis to measure lean, fat and water mass in FSG67 treated and control mice to determine the composition of the tissue loss with FSG67 treatment. In an additional chronic treatment experiment, 10 DIO mice were treated with FSG67 (5 mg/kg/d, ip) and 10 received vehicle for 10 days. The FSG67 treated mice lost 6.1±0.9 g (13.1±1.9%) while vehicle controls lost 1.1±0.4 g (2.3±0.8%) (p<0.0001. 2-way ANOVA). […] At the conclusion of the experiment, the FSG67 treated mice weighed 4.4 g less than the vehicle controls, which could be accounted for by the 4.0 g difference in fat mass. Thus, GPAT inhibition selectively reduces adiposity in DIO mice.

[2] = tested on: hypothalamic neuropeptide expression; assay: Real-time RT-PCR of hypothalamic neuropeptides in DIO mice; format: in vivo, mouse
Protocol: For acute studies, 6 DIO or lean mice were treated with a single dose of FSG67 (20 mg/kg, i.p.) approximately 3 hrs past lights-on. Animal weights and food consumption were measured 18 h after treatment. Following euthanization, the hypothalmuses were harvested to measure orexigenic and anorexigenic neuropeptide gene expression. In the chronic studies, DIO mice, 4-10 animals per group, were treated daily with FSG67 (5 mg/kg, i.p.) or with RMPI vehicle for the days indicated. Body weight and food intake were measured daily. In one study, a cohort of mice was pair-fed with amounts consumed by the FSG67-treated animals and mice were monitored with indirect calorimetry (Oxymax Equal Flow System®, Columbus Instruments, Columbus, Ohio). Measurements of VO2 (ml/kg/hr) and VCO2 (ml/kg/hr) were performed and recorded every 15 min. The respiratory exchange ratio (RER) was calculated by Oxymax software, version 5.9, and is defined as ratio of VCO2 to VO2 33. After completion of the treatment course, animals were euthanized by CO2 inhalation 4 hrs following the final dose of FSG67. Tissues were harvested immediately for RNA extraction; serum was collected and analyzed for glucose, cholesterol, and triglyceride measurements (Bioanalytics, Gaithersburg, Md.). Fresh liver tissue was snap frozen in liquid N2, sectioned, and stained with hematoxylin and Oil Red O to visualize triglyceride droplets.
Real-time RT-PCR. Hypothalamus, liver, and WAT of DIO and lean mice were harvested and immediately frozen in liquid nitrogen. Total RNA was isolated and real-time quantitative RT-PCR was performed as previously described (13). Gene-specific primer pairs were designed using Primer3 software (http://www-genome.wi.mit.edu/cgi-bin/primer/primer3_www.cgi/). […]
Acute and chronic FSG67 treatment altered hypothalamic neuropeptide expression. Hypothalamic peptide expression was measured in the lean and DIO mice treated with a single dose of FSG67 (see FIG. 11) and in the chronically treated DIO mice (see FIG. 12) to further asses the mechanism responsible for reduced food intake. […]

[3] = tested on: lipogenic gene expression; assay: Real-time RT-PCR gene expression in liver and white adipose tissue of 16 d treated DIO mice; format: in vivo, mouse
Protocol: Real-time RT-PCR. Hypothalamus, liver, and WAT of DIO and lean mice were harvested and immediately frozen in liquid nitrogen. Total RNA was isolated and real-time quantitative RT-PCR was performed as previously described (13). Gene-specific primer pairs were designed using Primer3 software (http://www-genome.wi.mit.edu/cgi-bin/primer/primer3_www.cgi/). The sequences of the primer pairs are listed in Supplemental Data Table 1.
To further explore the mechanism responsible for the reduction in adipose tissue mass, we used real-time RT-PCR to measure the expression of the following key lipogenic genes in white adipose tissue from vehicle control, pair-fed, and FSG67 treated DIO mice from the second indirect calorimetry trial (see FIG. 12c): fatty acid synthase (FAS), responsible for the de novo reductive synthesis of fatty acid 13, acetyl-CoA carboxylase 1 (ACC1), the cytoplasmic isoform of ACC expressed in lipogenic organs that synthesizes malonyl-CoA used as a substrate of FAS for fatty acid synthesis 14, peroxisome proliferator-activated receptor gamma (PPARγ) a key transcription factor for adipogenesis 15, lipid partitioning 16, and postprandial lipid storage 17, and GPAT. […] (FIG. 19). Thus, pharmacological GPAT inhibition not only increases fatty acid oxidation and reduces food intake, but up-regulates UCP2 in liver and white adipose tissue while down-regulating lipogenic gene expression in white adipose tissue, all of which should favor a selective decrease in adiposity. […]

DIO mice [4] = assay: 5-day dose ranging study in DIO mice; format: in vivo, mouse; settings: 5 days
Protocol: To determine the dose of FSG67 suitable for chronic treatment, we performed a 5-day dose ranging study in DIO mice, four per group, with daily intraperitoneal doses of 1, 2, and 5 mg/kg (FIG. 17). The 5 mg/kg dose led to significant weight loss of 3.9% compared to vehicle controls (p=0.008, 2-way ANOVA). This dose was chosen for the subsequent chronic treatment experiments.

[5] = vs control and pair-fed, listed as FSG67

## CCCCCCCCCS(=O)(=O)Nc1ccccc1C(=O)O [Compound 15g, 2-(Nonylsulfonamido)benzoic acid]
3T3-L1 adipocytes; 3T3-L1 adipocytes, 48 h following treatment, photomicrographs, listed as FSG67
  triglyceride / lipid droplet accumulation: dose-dependent reduction; also recorded: reduction in lipid droplet accumulation
3T3-L1 adipocytes; read-out: IC50 for cellular triglyceride synthesis
  IC50: 33.9 µM
3T3-L1 adipocytes; read-out: IC50 for phosphatidylcholine synthesis
  IC50: 36.3 µM
DIO mice [1]; 5 mg/kg ip daily, 10 d
  reduction in fat mass compared to vehicle controls (Q-NMR): 4.0 g
DIO mice [1]; 5 mg/kg ip daily, 10 d, listed as FSG67, 5 mg/kg
  lean and water mass (Q-NMR): no significant change; also recorded: unaffected
DIO mice [1]; conclusion of 10 d experiment
  final weight difference to vehicle controls: 4.4 g
[2]; 16 d treated
  hypothalamic AGRP, POMC and CART expression: unaffected
[2]; 16 d treated, vs vehicle controls, listed as FSG67
  hypothalamic NPY expression: significant reduction
[2]; single dose, vs vehicle controls and food-deprived (data not shown)
  hypothalamic AGRP expression: significantly increased
[3]; listed as FSG67
  GPAT expression in liver: unaffected
  L-CPT-1 expression in liver and WAT: unaffected; also recorded: not affected
[3]; vs control
  UCP2 expression in liver: increased
[3]; [5]
  ACC1 expression in white adipose tissue: substantial down-regulation; also recorded: down regulated
  FAS expression in white adipose tissue: substantial down-regulation; also recorded: down regulated
  GPAT expression in white adipose tissue: substantial down-regulation; also recorded: down regulated
  PPARγ expression in white adipose tissue: substantial down-regulation; also recorded: down regulated
[3]; vs pair-fed
  UCP2 expression in WAT: increased
[3]; vs pair-fed, listed as FSG67
  ACC1 expression in liver: significant reduction; also recorded: reduced
[3]; vs vehicle and pair-fed, listed as FSG67
  FAS expression in liver: significant reduction; also recorded: reduced
DIO mice [4]; 5 mg/kg ip daily
  weight loss compared to vehicle controls: 3.9%
DIO mice [4]; daily ip, doses 1, 2, 5 mg/kg
  minimum dose that led to significant weight loss: 5 mg/kg
